In US20230391736A1, “3-TETRAZOLYLMETHYL-1,3,5-TRIAZIN-2,4-DIONE COMPOUND INHIBITING CORONAVIRUS 3CL PROTEASE ACTIVITY AND PREPARATION METHOD AND USE THEREOF” (priority 2022, published 2023):
Where two headings read alike, the source gives them in different places.

What was measured:
HEK293 cells = test: In-vitro cytotoxicity by the MTT method, HEK293 cells; conditions: 24 hrs
Experimental: (§1) The in-vitro cytotoxicity of Compounds 1, 12, and 17 was evaluated by the MTT method. HepG2, HEK293 and A549 cells in logarithmic growth phase were respectively trypsinized into a cell suspension. The cell density was adjusted to 5×10^4 cells/mL. 180 μL per well of the cell suspension was inoculated into a sterile 96-well plate at 37° C., and cultured in an incubator at 5% CO2 for 24 hrs. After the cells were attached to the bottom of the plate, 20 μL of the drug solutions over the concentration gradients were respectively added into each well, and 6 replicate wells were set in parallel. Also, a blank group (group without cells and drug) and a control group (group without drug) were set. The system was incubated in an incubator at 37° C. and 5% CO2 for 24 hrs, and then 20 μL per well of a 5 g/L MTT solution was added and incubated for another 4 hrs. After the incubation was completed, the culture medium in the well was gently aspirated, and 100 μL of DMSO was added to each well. Then the crystal was fully dissolved in a shaker for 10 min at a low speed. After that, the absorbency of each well was measured at OD490 nm in an enzymelinked immunodetector, and the survival rate of cells was calculated.

HepG2 cells = test: In-vitro cytotoxicity by the MTT method, HepG2 cells; conditions: 24 hrs
Experimental: as §1

SARS-CoV-2 3CL^pro = SARS-CoV-2 3CL^pro (Severe acute respiratory syndrome coronavirus 2 (2019-nCoV) (SARS-CoV-2), UniProt P0DTD1); test: biochemical; conditions: for IC50: FRET
A549 cells = test: In-vitro cytotoxicity by the MTT method, A549 cells; conditions: 24 hrs
Experimental: as §1

[1] = class symbols, read-out: IC50 (nM), inhibitory activity against 3CL^pro
[2] = non-linear regression, read-out: IC50 against 3CL^pro

| Compound | Survival rate of HEK293 cells (HEK293 cells; 1.5625 nM) [%] | Survival rate of HEK293 cells (HEK293 cells; 3.125 nM) [%] | Survival rate of HEK293 cells (HEK293 cells; 6.25 nM) [%] | Survival rate of HEK293 cells (HEK293 cells; 12.5 nM) [%] | Survival rate of HEK293 cells (HEK293 cells; 25 nM) [%] | Survival rate of HEK293 cells (HEK293 cells; 50 nM) [%] | Survival rate of HEK293 cells (HEK293 cells; 100 nM) [%] | Survival rate of HEK293 cells (HEK293 cells; 200 nM) [%] | Survival rate of HEK293 cells (HEK293 cells; 400 nM) [%] | Survival rate of HepG2 cells (HepG2 cells; 1.5625 nM) [%] | Survival rate of HepG2 cells (HepG2 cells; 3.125 nM) [%] | Survival rate of HepG2 cells (HepG2 cells; 6.25 nM) [%] | Survival rate of HepG2 cells (HepG2 cells; 12.5 nM) [%] | Survival rate of HepG2 cells (HepG2 cells; 25 nM) [%] | Survival rate of HepG2 cells (HepG2 cells; 50 nM) [%] | Survival rate of HepG2 cells (HepG2 cells; 100 nM) [%] | Survival rate of HepG2 cells (HepG2 cells; 200 nM) [%] | Survival rate of HepG2 cells (HepG2 cells; 400 nM) [%] | IC50 (SARS-CoV-2 3CL^pro; [1]) [nM] | IC50 (SARS-CoV-2 3CL^pro; [2]) [nM] | other results |
| --- | --- | --- | --- | --- | --- | --- | --- | --- | --- | --- | --- | --- | --- | --- | --- | --- | --- | --- | --- | --- | --- |
| Cn1cc2cc(/N=c3\[nH]c(=O)n(Cc4nnn[nH]4)c(=O)n3Cc3cc(F)c(F)cc3F)c(Cl)cc2n1 [Compound 1] | 95.07 | 95.62 | 93.10 | 90.50 | 88.23 | 87.10 | 82.87 | 82.56 | 80.83 | 97.17 | 96.73 | 95.83 | 93.62 | 90.15 | 89.09 | 85.37 | 84.76 | 82.33 | < 200 | 120 | inhibition percentage of 3CL^pro (SARS-CoV-2 3CL^pro; concentration 0.1 nM): 0.86%; inhibition percentage of 3CL^pro (SARS-CoV-2 3CL^pro; concentration 1 nM): 2.12%; inhibition percentage of 3CL^pro (SARS-CoV-2 3CL^pro; concentration 5 nM): 7.77%; inhibition percentage of 3CL^pro (SARS-CoV-2 3CL^pro; concentration 10 nM): 9.75%; inhibition percentage of 3CL^pro (SARS-CoV-2 3CL^pro; concentration 20 nM): 14.30%; inhibition percentage of 3CL^pro (SARS-CoV-2 3CL^pro; concentration 30 nM): 18.23%; inhibition percentage of 3CL^pro (SARS-CoV-2 3CL^pro; concentration 50 nM): 21.89%; inhibition percentage of 3CL^pro (SARS-CoV-2 3CL^pro; concentration 100 nM): 58.21%; inhibition percentage of 3CL^pro (SARS-CoV-2 3CL^pro; concentration 500 nM): 73.44%; inhibition percentage of 3CL^pro (SARS-CoV-2 3CL^pro; concentration 1000 nM): 89.12%; Survival rate of A549 cells (A549 cells; 1.5625 nM): 98.18%; Survival rate of A549 cells (A549 cells; 3.125 nM): 98.39%; Survival rate of A549 cells (A549 cells; 6.25 nM): 98.23%; Survival rate of A549 cells (A549 cells; 12.5 nM): 96.93%; Survival rate of A549 cells (A549 cells; 25 nM): 96.16%; Survival rate of A549 cells (A549 cells; 50 nM): 96.33%; Survival rate of A549 cells (A549 cells; 100 nM): 95.75%; Survival rate of A549 cells (A549 cells; 200 nM): 93.23%; Survival rate of A549 cells (A549 cells; 400 nM): 92.19% |
| Cn1cc2cc(/N=c3\[nH]c(=O)n(Cc4nnn[nH]4)c(=O)n3Cc3ccc(F)cc3)c(Cl)cc2n1 [Compound 12] | 93.44 | 92.73 | 91.16 | 89.80 | 85.34 | 82.99 | 82.76 | 78.93 | 77.46 | 96.16 | 94.78 | 93.92 | 91.45 | 88.16 | 87.52 | 83.43 | 82.56 | 77.32 | < 200 | 184 | inhibition at 0.0001 µM (SARS-CoV-2 3CL^pro; concentration 0.1 nM, read-out: inhibition percentage of 3CL^pro): 0.52%; inhibition at 0.001 µM (SARS-CoV-2 3CL^pro; concentration 1 nM, read-out: inhibition percentage of 3CL^pro): 1.86%; inhibition at 0.005 µM (SARS-CoV-2 3CL^pro; concentration 5 nM, read-out: inhibition percentage of 3CL^pro): 4.98%; inhibition at 0.01 µM (SARS-CoV-2 3CL^pro; concentration 10 nM, read-out: inhibition percentage of 3CL^pro): 7.28%; inhibition at 0.02 µM (SARS-CoV-2 3CL^pro; concentration 20 nM, read-out: inhibition percentage of 3CL^pro): 9.3%; inhibition at 0.03 µM (SARS-CoV-2 3CL^pro; concentration 30 nM, read-out: inhibition percentage of 3CL^pro): 12.3%; inhibition at 0.05 µM (SARS-CoV-2 3CL^pro; concentration 50 nM, read-out: inhibition percentage of 3CL^pro): 18.8%; inhibition at 0.1 µM (SARS-CoV-2 3CL^pro; concentration 100 nM, read-out: inhibition percentage of 3CL^pro): 40%; inhibition at 0.5 µM (SARS-CoV-2 3CL^pro; concentration 500 nM, read-out: inhibition percentage of 3CL^pro): 70.2%; inhibition at 1 µM (SARS-CoV-2 3CL^pro; concentration 1000 nM, read-out: inhibition percentage of 3CL^pro): 85.4%; Survival rate of A549 cells (A549 cells; 1.5625 nM): 98.43%; Survival rate of A549 cells (A549 cells; 3.125 nM): 96.76%; Survival rate of A549 cells (A549 cells; 6.25 nM): 96.86%; Survival rate of A549 cells (A549 cells; 12.5 nM): 96.42%; Survival rate of A549 cells (A549 cells; 25 nM): 95.19%; Survival rate of A549 cells (A549 cells; 50 nM): 93.96%; Survival rate of A549 cells (A549 cells; 100 nM): 93.51%; Survival rate of A549 cells (A549 cells; 200 nM): 92.13%; Survival rate of A549 cells (A549 cells; 400 nM): 89.12% |
| CCn1nnnc1Cn1c(=O)[nH]/c(=N\c2cc3cn(C)nc3cc2Cl)n(Cc2cc(F)c(F)cc2F)c1=O [Compound 17] | 93.79 | 93.12 | 93.48 | 90.79 | 85.73 | 84.32 | 83.83 | 79.45 | 78.03 | 95.56 | 95.79 | 94.43 | 91.02 | 90.46 | 87.13 | 83.85 | 80.42 | 76.13 | < 200 | 160 | inhibition percentage of 3CL^pro (SARS-CoV-2 3CL^pro; concentration 0.1 nM): 0.76%; inhibition percentage of 3CL^pro (SARS-CoV-2 3CL^pro; concentration 1 nM): 1.93%; inhibition percentage of 3CL^pro (SARS-CoV-2 3CL^pro; concentration 5 nM): 6.21%; inhibition percentage of 3CL^pro (SARS-CoV-2 3CL^pro; concentration 10 nM): 7.67%; inhibition percentage of 3CL^pro (SARS-CoV-2 3CL^pro; concentration 20 nM): 12.76%; inhibition percentage of 3CL^pro (SARS-CoV-2 3CL^pro; concentration 30 nM): 17.92%; inhibition percentage of 3CL^pro (SARS-CoV-2 3CL^pro; concentration 50 nM): 25.23%; inhibition percentage of 3CL^pro (SARS-CoV-2 3CL^pro; concentration 100 nM): 44.76%; inhibition percentage of 3CL^pro (SARS-CoV-2 3CL^pro; concentration 500 nM): 68.52%; inhibition percentage of 3CL^pro (SARS-CoV-2 3CL^pro; concentration 1000 nM): 85.36%; Survival rate of A549 cells (A549 cells; 1.5625 nM): 98.02%; Survival rate of A549 cells (A549 cells; 3.125 nM): 97.96%; Survival rate of A549 cells (A549 cells; 6.25 nM): 97.24%; Survival rate of A549 cells (A549 cells; 12.5 nM): 96.38%; Survival rate of A549 cells (A549 cells; 25 nM): 95.77%; Survival rate of A549 cells (A549 cells; 50 nM): 94.13%; Survival rate of A549 cells (A549 cells; 100 nM): 94.21%; Survival rate of A549 cells (A549 cells; 200 nM): 93.31%; Survival rate of A549 cells (A549 cells; 400 nM): 91.33% |
